Measured values taken from ChEMBL document CHEMBL1139538, “ERbeta ligands. 3. Exploiting two binding orientations of the 2-phenylnaphthalene scaffold to achieve ERbeta selectivity” (J Med Chem, 2005).

Columns and labels:
Estrogen receptor beta = Estrogen receptor beta (Homo sapiens, UniProt Q92731)
Estrogen receptor = target: T1, Estrogen receptor (Homo sapiens, UniProt P03372)
T1 sequence (P03372 whole entry): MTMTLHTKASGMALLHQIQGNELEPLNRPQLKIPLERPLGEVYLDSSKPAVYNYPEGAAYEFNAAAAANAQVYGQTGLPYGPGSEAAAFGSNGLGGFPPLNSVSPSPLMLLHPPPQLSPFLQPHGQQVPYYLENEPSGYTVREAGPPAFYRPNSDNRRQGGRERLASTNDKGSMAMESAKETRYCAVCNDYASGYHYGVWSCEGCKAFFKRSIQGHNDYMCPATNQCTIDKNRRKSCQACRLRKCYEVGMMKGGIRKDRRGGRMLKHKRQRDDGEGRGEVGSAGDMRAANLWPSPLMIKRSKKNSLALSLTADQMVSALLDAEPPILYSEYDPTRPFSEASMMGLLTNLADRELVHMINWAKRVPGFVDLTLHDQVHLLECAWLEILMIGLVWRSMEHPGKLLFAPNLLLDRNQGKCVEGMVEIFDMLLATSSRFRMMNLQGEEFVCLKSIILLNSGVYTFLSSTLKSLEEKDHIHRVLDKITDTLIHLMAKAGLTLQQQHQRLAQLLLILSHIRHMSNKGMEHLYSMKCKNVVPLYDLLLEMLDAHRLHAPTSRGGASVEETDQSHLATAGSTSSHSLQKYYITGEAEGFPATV
Description: Inhibition of [3H]17-beta-estradiol binding to human estrogen receptor alpha expressed in Escherichia coli

Rattus norvegicus [1] = test: Effect of oral administration of 1 mg/kg compound on colon histology (haemoglobin) in HLA-B27 transgenic rats; type: functional
Rattus norvegicus [2] = test: Effect of oral administration of 10 mg/kg compound on colon histology (haemoglobin) in HLA-B27 transgenic rats; type: functional
[3] = target: T2, Estrogen receptor (Rattus norvegicus) (UniProt P06211+Q62986)
Description: Effect on uterine weight of immature rats at 2 mg/rat/day dose after 3 days

[4] = target: T2, Estrogen receptor (Rattus norvegicus); remark: listed apart in the source
Description: Effect on uterine weight in immature rats in combination with 17R-ethinyl-17-beta-estradiol after 3 days

Estrogen receptor beta, sequence (Q92731 whole entry): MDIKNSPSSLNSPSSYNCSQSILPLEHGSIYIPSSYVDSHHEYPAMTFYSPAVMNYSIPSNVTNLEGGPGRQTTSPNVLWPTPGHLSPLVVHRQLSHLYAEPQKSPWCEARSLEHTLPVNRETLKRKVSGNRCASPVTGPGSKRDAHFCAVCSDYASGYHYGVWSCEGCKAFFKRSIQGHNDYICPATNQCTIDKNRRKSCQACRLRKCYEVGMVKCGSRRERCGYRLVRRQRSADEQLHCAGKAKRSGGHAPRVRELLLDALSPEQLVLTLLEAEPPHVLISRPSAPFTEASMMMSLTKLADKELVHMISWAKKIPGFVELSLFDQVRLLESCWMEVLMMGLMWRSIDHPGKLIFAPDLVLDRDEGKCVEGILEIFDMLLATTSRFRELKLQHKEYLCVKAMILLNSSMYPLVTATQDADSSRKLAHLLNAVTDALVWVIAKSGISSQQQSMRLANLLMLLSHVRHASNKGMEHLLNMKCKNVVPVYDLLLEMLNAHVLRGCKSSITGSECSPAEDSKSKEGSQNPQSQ

Work on Oc1cc(F)c(-c2ccc3c(Cl)c(O)ccc3c2)cc1F yielded an IC50 (Estrogen receptor beta) of 0.0085 µM and an IC50 (Estrogen receptor) of 0.118 µM.

Work on Oc1ccc(-c2cc(F)c3c(Cl)c(O)ccc3c2)cc1 yielded an IC50 (Estrogen receptor beta) of 0.0011 µM and an IC50 (Estrogen receptor) of 0.04 µM.

Work on Oc1ccc(-c2ccc3c(-c4ccccc4)c(O)ccc3c2)cc1 yielded an IC50 (Estrogen receptor beta) of 0.748 µM and an IC50 (Estrogen receptor) of 1.23 µM.

Oc1ccc(-c2ccc3ccc(O)cc3c2)cc1 gave an IC50 (Estrogen receptor beta) of 0.044 µM and an IC50 (Estrogen receptor) of 0.442 µM.

Molecule Oc1cccc(-c2ccc3ccc(O)cc3c2)c1 has an IC50 (Estrogen receptor beta) of 0.566 µM and an IC50 (Estrogen receptor) of 2.64 µM.

With Oc1ccc(-c2ccc3ccccc3c2)cc1 the IC50 (Estrogen receptor) was 0.638 µM.

Work on Oc1ccc(-c2ccc3cc(O)ccc3c2)c(Cl)c1 yielded an IC50 (Estrogen receptor beta) of 0.0014 µM.

N#Cc1cc(O)c(C#N)c2ccc(-c3ccc(O)c(F)c3)cc12 gave an IC50 (Estrogen receptor beta) of 0.028 µM and an IC50 (Estrogen receptor) of 0.877 µM.

Molecule Oc1ccc2ccc(-c3ccccc3)cc2c1 has an IC50 (Estrogen receptor) of 3.4 µM.

N#Cc1cc(-c2ccc(O)cc2)cc2ccc(O)c(Cl)c12 was tested, and the IC50 (Estrogen receptor beta) was 0.006 µM and the IC50 (Estrogen receptor) was 0.109 µM.

Oc1ccc2cc(-c3cc(F)c(O)c(F)c3)ccc2c1 gave an IC50 (Estrogen receptor beta) of 0.0084 µM.

CC#Cc1cc(-c2ccc(O)c(F)c2)cc2ccc(O)cc12 was tested, and the IC50 (Estrogen receptor beta) was 0.01 µM and the IC50 (Estrogen receptor) was 0.343 µM.

Molecule CCc1cc(-c2ccc(O)c(F)c2)cc2ccc(O)cc12 has an IC50 (Estrogen receptor beta) of 0.0024 µM and an IC50 (Estrogen receptor) of 0.235 µM.

For CCc1cc(O)cc2ccc(-c3ccc(O)c(F)c3)cc12, the IC50 (Estrogen receptor beta) was 0.0025 µM and the IC50 (Estrogen receptor) was 0.113 µM.

N#Cc1cc(-c2cc(F)c(O)cc2F)cc2ccc(O)cc12 gave an IC50 (Estrogen receptor beta) of 0.0069 µM and an IC50 (Estrogen receptor) of 0.186 µM.

N#Cc1cc(O)cc2ccc(-c3ccc(O)cc3)cc12 showed an IC50 (Estrogen receptor beta) of 0.002 µM and an IC50 (Estrogen receptor) of 0.084 µM.

With Oc1ccc(-c2cc(Cl)c3c(Cl)c(O)ccc3c2)cc1 the IC50 (Estrogen receptor beta) was 0.009 µM and the IC50 (Estrogen receptor) was 0.043 µM.

Work on Cc1cc(O)ccc1-c1ccc2cc(O)ccc2c1 yielded an IC50 (Estrogen receptor beta) of 0.01 µM and an IC50 (Estrogen receptor) of 0.04 µM.

Molecule Oc1cc(F)c(-c2ccc3c(Cl)c(O)ccc3c2)c(F)c1 has an IC50 (Estrogen receptor beta) of 0.0034 µM and an IC50 (Estrogen receptor) of 0.035 µM.

N#Cc1cc(-c2c(F)cc(O)cc2F)cc2ccc(O)cc12 showed an IC50 (Estrogen receptor beta) of 0.0022 µM and an IC50 (Estrogen receptor) of 0.045 µM.

C=Cc1cc(-c2ccc(O)c(F)c2)cc2ccc(O)cc12 showed an IC50 (Estrogen receptor beta) of 0.0044 µM and an IC50 (Estrogen receptor) of 0.254 µM.

For N#Cc1cc(-c2ccc(O)cc2)cc2ccc(O)c(Br)c12, the IC50 (Estrogen receptor beta) was 0.012 µM and the IC50 (Estrogen receptor) was 0.131 µM.

CC#Cc1cc(O)cc2ccc(-c3ccc(O)c(F)c3)cc12 gave an IC50 (Estrogen receptor beta) of 0.0055 µM and an IC50 (Estrogen receptor) of 0.18 µM.

Molecule N#Cc1cc(-c2ccc(O)c(F)c2)cc2ccc(O)cc12 has an Activity (Rattus norvegicus [1]) of 0.45 mg/mL, an Activity (Rattus norvegicus [2]) of 0.35 mg/mL and a Weight [3] of 23.3 mg. The Weight [4] was 81.9 mg.

With Oc1ccc2cc(-c3ccc(O)c(F)c3)ccc2c1 the IC50 (Estrogen receptor beta) was 0.005 µM.

In the case of Oc1ccc(-c2ccc3cc(O)ccc3c2)cc1, the IC50 (Estrogen receptor beta) is reported as 0.0163 µM and the IC50 (Estrogen receptor) is reported as 0.211 µM.

For Oc1ccc2cc(-c3ccccc3)ccc2c1, the IC50 (Estrogen receptor beta) was 0.374 µM and the IC50 (Estrogen receptor) was 1.34 µM.

N#Cc1cc(O)c(Cl)c2ccc(-c3ccc(O)c(F)c3)cc12 gave an IC50 (Estrogen receptor beta) of 0.0026 µM and an IC50 (Estrogen receptor) of 0.055 µM.

C#Cc1cc(O)cc2ccc(-c3ccc(O)c(F)c3)cc12 was tested, and the IC50 (Estrogen receptor beta) was 0.0012 µM and the IC50 (Estrogen receptor) was 0.073 µM.

Molecule Oc1cccc(-c2ccc3c(O)cccc3c2)c1 has an IC50 (Estrogen receptor beta) of 0.205 µM and an IC50 (Estrogen receptor) of 1.45 µM.

With Cc1c(O)cc(C#N)c2cc(-c3ccc(O)c(F)c3)ccc12 the IC50 (Estrogen receptor beta) was 0.006 µM and the IC50 (Estrogen receptor) was 0.406 µM.

With O=[N+]([O-])c1c(O)ccc2cc(-c3ccc(O)cc3)ccc12 the IC50 (Estrogen receptor beta) was 0.199 µM and the IC50 (Estrogen receptor) was 0.709 µM.

With O=Cc1cc(-c2ccc(O)c(F)c2)cc2ccc(O)cc12 the IC50 (Estrogen receptor beta) was 0.0034 µM and the IC50 (Estrogen receptor) was 0.231 µM.

Work on Oc1ccc2cc(-c3ccc(O)c(Cl)c3)ccc2c1 yielded an IC50 (Estrogen receptor beta) of 0.011 µM and an IC50 (Estrogen receptor) of 0.107 µM.

Work on Oc1ccc(-c2ccc3c(Cl)c(O)ccc3c2)cc1F yielded an IC50 (Estrogen receptor beta) of 0.004 µM.

Molecule O=Cc1cc(O)cc2ccc(-c3ccc(O)c(F)c3)cc12 has an IC50 (Estrogen receptor beta) of 0.0011 µM and an IC50 (Estrogen receptor) of 0.073 µM.

Molecule N#Cc1cc(-c2ccc(O)c(F)c2)cc2ccc(O)c(F)c12 has an IC50 (Estrogen receptor beta) of 0.0056 µM and an IC50 (Estrogen receptor) of 0.312 µM.

Oc1ccc(-c2ccc3c(F)c(O)ccc3c2)cc1 was tested, and the IC50 (Estrogen receptor beta) was 0.007 µM and the IC50 (Estrogen receptor) was 0.077 µM.

Molecule Oc1ccc2cc(-c3cc(F)c(O)cc3F)ccc2c1 has an IC50 (Estrogen receptor beta) of 0.0028 µM and an IC50 (Estrogen receptor) of 0.027 µM.

Work on C#Cc1cc(-c2ccc(O)c(F)c2)cc2ccc(O)cc12 yielded an IC50 (Estrogen receptor beta) of 0.0063 µM and an IC50 (Estrogen receptor) of 0.247 µM.

Oc1ccc(-c2ccc3c(Cl)c(O)ccc3c2)cc1 was tested, and the IC50 (Estrogen receptor) was 0.091 µM.

Cc1cc(O)ccc1-c1ccc2c(Cl)c(O)ccc2c1 showed an IC50 (Estrogen receptor) of 0.04 µM.

Oc1ccc(-c2ccc3c(O)cccc3c2)cc1 gave an IC50 (Estrogen receptor beta) of 0.0058 µM.

With N#Cc1cc(O)cc2ccc(-c3ccc(O)c(F)c3)cc12 the IC50 (Estrogen receptor beta) was 0.0021 µM and the IC50 (Estrogen receptor) was 0.096 µM.

In the case of N#Cc1cc(O)c(Br)c2ccc(-c3ccc(O)c(F)c3)cc12, the IC50 (Estrogen receptor beta) is reported as 0.0045 µM and the IC50 (Estrogen receptor) is reported as 0.116 µM.

Oc1ccc(-c2cc(F)c3cc(O)ccc3c2)cc1 was tested, and the IC50 (Estrogen receptor beta) was 0.0016 µM and the IC50 (Estrogen receptor) was 0.022 µM.

With N#Cc1cc(-c2ccc(O)cc2F)cc2ccc(O)cc12 the IC50 (Estrogen receptor beta) was 0.0005 µM and the IC50 (Estrogen receptor) was 0.026 µM.

Molecule N#Cc1cc(O)c(Cl)c2ccc(-c3ccc(O)cc3)cc12 has an IC50 (Estrogen receptor beta) of 0.003 µM and an IC50 (Estrogen receptor) of 0.098 µM.

Oc1cccc(-c2ccc3cc(O)ccc3c2)c1 gave an IC50 (Estrogen receptor beta) of 0.03 µM.

Oc1ccc(-c2ccc3cc(O)ccc3c2)c(F)c1 was tested, and the IC50 (Estrogen receptor beta) was 0.002 µM and the IC50 (Estrogen receptor) was 0.024 µM.

With Oc1ccc(-c2ccc3c(Cl)c(O)ccc3c2)c(F)c1 the IC50 (Estrogen receptor beta) was 0.0012 µM and the IC50 (Estrogen receptor) was 0.058 µM.

For Oc1cc(F)c(-c2ccc3cc(O)ccc3c2)c(F)c1, the IC50 (Estrogen receptor beta) was 0.0023 µM and the IC50 (Estrogen receptor) was 0.0103 µM.

Molecule C=Cc1cc(O)cc2ccc(-c3ccc(O)c(F)c3)cc12 has an IC50 (Estrogen receptor beta) of 0.0073 µM and an IC50 (Estrogen receptor) of 0.527 µM.

For COc1cc(O)ccc1-c1ccc2cc(O)ccc2c1, the IC50 (Estrogen receptor) was 0.174 µM.

Molecule Oc1ccc2cc(-c3cc(F)c(O)c(F)c3)ccc2c1Cl has an IC50 (Estrogen receptor beta) of 0.0106 µM.

Work on Oc1ccc2cc(-c3ccc(O)c(F)c3)cc(F)c2c1 yielded an IC50 (Estrogen receptor beta) of 0.0015 µM and an IC50 (Estrogen receptor) of 0.021 µM.

With Oc1ccc(-c2ccc3c(Br)c(O)ccc3c2)cc1 the IC50 (Estrogen receptor beta) was 0.013 µM and the IC50 (Estrogen receptor) was 0.266 µM.

Molecule Oc1ccc(-c2ccc3c(Cl)c(O)ccc3c2)c(Cl)c1 has an IC50 (Estrogen receptor beta) of 0.0033 µM and an IC50 (Estrogen receptor) of 0.036 µM.

With Oc1ccc2cc(-c3ccccc3O)ccc2c1 the IC50 (Estrogen receptor beta) was 2 µM and the IC50 (Estrogen receptor) was > 5 µM.

Oc1ccc(-c2cc(Cl)c3cc(O)ccc3c2)cc1 gave an IC50 (Estrogen receptor beta) of 0.0023 µM and an IC50 (Estrogen receptor) of 0.03 µM.
